{"source": "paper PMC5160999", "about": "(ChemMedChem, 2016)", "key": {"[1]": {"test_system": "B. subtilis", "test": "Synergy/antagonism two-drug combination assay, B. subtilis", "format": "cell-based"}, "[2]": {"test_system": "S. aureus", "test": "Synergy/antagonism two-drug combination assay, S. aureus", "format": "cell-based"}, "[3]": {"test_system": "E. coli", "test": "Synergy/antagonism two-drug combination assay, E. coli", "format": "cell-based"}, "[4]": {"test_system": "A. baumannii", "test": "Synergy/antagonism two-drug combination assay, A. baumannii", "format": "cell-based"}, "[5]": {"test_system": "K. pneumoniae", "test": "Synergy/antagonism two-drug combination assay, K. pneumoniae", "format": "cell-based"}, "[6]": {"test_system": "P. aeruginosa", "test": "Synergy/antagonism two-drug combination assay, P. aeruginosa", "format": "cell-based"}, "[7]": {"target": "EcUPPP (Escherichia coli, UniProt P60932)", "sequence (P60932 whole entry)": "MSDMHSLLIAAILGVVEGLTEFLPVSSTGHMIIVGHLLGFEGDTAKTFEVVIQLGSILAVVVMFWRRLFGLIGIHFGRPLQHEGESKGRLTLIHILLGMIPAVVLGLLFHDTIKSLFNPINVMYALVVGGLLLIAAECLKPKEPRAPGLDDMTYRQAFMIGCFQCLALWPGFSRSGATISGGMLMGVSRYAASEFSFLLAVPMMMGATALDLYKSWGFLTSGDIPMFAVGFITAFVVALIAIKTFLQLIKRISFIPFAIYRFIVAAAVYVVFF", "test": "EcUPPP inhibition, malachite-green assay", "format": "biochemical, E. coli", "conditions": "read-out: IC50 EuUPPP"}}, "data": [{"compound": "CC1(C)S[C@@H]2[C@H](NC(=O)[C@H](N)c3ccccc3)C(=O)N2[C@H]1C(=O)O", "note": "[Ampicillin]", "values": [{"measurement": "FIC", "setting": "[1]; B. subtilis, combination of 32 with Ampicillin", "value": "0.18 ± 0.041"}, {"measurement": "MIC", "setting": "[1]; Bacillus subtilis", "value": 0.5, "unit": "µg/mL"}, {"measurement": "FIC", "setting": "[2]; S. aureus, combination of 32 with Ampicillin", "value": "0.30 ± 0.095"}, {"measurement": "MIC", "setting": "[2]; Staphylococcus aureus", "value": 0.5, "unit": "µg/mL"}]}, {"compound": "CC1(C)S[C@@H]2[C@H](NC(=O)C(C(=O)O)c3ccccc3)C(=O)N2[C@H]1C(=O)O", "note": "(stereo partly drawn) [Carbenicillin]", "values": [{"measurement": "FIC", "setting": "[1]; B. subtilis, combination of 32 with Carbenicillin", "value": "0.25 ± 0.043"}, {"measurement": "MIC", "setting": "[1]; Bacillus subtilis", "value": 5, "unit": "µg/mL"}, {"measurement": "FIC", "setting": "[2]; S. aureus, combination of 32 with Carbenicillin", "value": "0.27 ± 0.015"}, {"measurement": "MIC", "setting": "[2]; Staphylococcus aureus", "value": 15, "unit": "µg/mL"}]}, {"compound": "CO/N=C(\\C(=O)N[C@@H]1C(=O)N2C(C(=O)O)=C(COC(C)=O)CS[C@H]12)c1csc(N)n1", "note": "[Cefotaxime]", "values": [{"measurement": "FIC", "setting": "[1]; B. subtilis, combination of 32 with Cefotaxime", "value": "0.30 ± 0.044"}, {"measurement": "MIC", "setting": "[1]; Bacillus subtilis", "value": 2.5, "unit": "µg/mL"}, {"measurement": "FIC", "setting": "[2]; S. aureus, combination of 32 with Cefotaxime", "value": "0.21 ± 0.048"}, {"measurement": "MIC", "setting": "[2]; Staphylococcus aureus", "value": 2, "unit": "µg/mL"}]}, {"compound": "O=C(N[C@H](CO)[C@H](O)c1ccc([N+](=O)[O-])cc1)C(Cl)Cl", "note": "[Chloramphenicol]", "values": [{"measurement": "FIC", "setting": "[1]; B. subtilis, combination of 32 with Chloramphenicol", "value": "0.55 ± 0.13"}, {"measurement": "MIC", "setting": "[1]; Bacillus subtilis", "value": 0.5, "unit": "µg/mL"}, {"measurement": "FIC", "setting": "[2]; S. aureus, combination of 32 with Chloramphenicol", "value": "0.71 ± 0.11"}, {"measurement": "MIC", "setting": "[2]; Staphylococcus aureus", "value": 5, "unit": "µg/mL"}]}, {"compound": "C[C@@H]1O[C@@H]1P(=O)(O)O", "note": "[Fosfomycin]", "values": [{"measurement": "FIC", "setting": "[1]; B. subtilis, combination of 32 with Fosfomycin", "value": "0.21 ± 0.025"}, {"measurement": "MIC", "setting": "[1]; Bacillus subtilis", "value": 200, "unit": "µg/mL"}, {"measurement": "FIC", "setting": "[2]; S. aureus, combination of 32 with Fosfomycin", "value": "0.13 ± 0.022"}, {"measurement": "MIC", "setting": "[2]; Staphylococcus aureus", "value": 200, "unit": "µg/mL"}]}, {"compound": "NC[C@H]1O[C@H](O[C@H]2[C@H](O)[C@@H](O[C@H]3O[C@H](CO)[C@@H](O)[C@H](N)[C@H]3O)[C@H](N)C[C@@H]2N)[C@H](O)[C@@H](O)[C@@H]1O", "note": "[Kanamycin]", "values": [{"measurement": "FIC", "setting": "[1]; B. subtilis, combination of 32 with Kanamycin", "value": "0.61 ± 0.097"}, {"measurement": "MIC", "setting": "[1]; B. subtilis, drug acting alone", "value": 1.5, "unit": "µg/mL"}, {"measurement": "FIC", "setting": "[2]; S. aureus, combination of 32 with Kanamycin", "value": "0.81 ± 0.17"}, {"measurement": "MIC", "setting": "[2]; S. aureus, drug acting alone", "value": 1.5, "unit": "µg/mL"}]}, {"compound": "CN[C@@H]1[C@H](O)[C@H](NC)[C@H]2O[C@@]3(O)C(=O)C[C@@H](C)O[C@H]3O[C@@H]2[C@H]1O", "note": "[Spectinomycin]", "values": [{"measurement": "FIC", "setting": "[2]; S. aureus, combination of 32 with Spectinomycin", "value": "0.45 ± 0.091"}, {"measurement": "MIC", "setting": "[2]; Staphylococcus aureus", "value": 40, "unit": "µg/mL"}]}, {"compound": "Cc1cc(NS(=O)(=O)c2ccc(N)cc2)no1", "note": "[Sulfamethoxazole]", "values": [{"measurement": "FIC", "setting": "[1]; B. subtilis, combination of 32 with Sulfamethoxazole", "value": "0.87 ± 0.23"}, {"measurement": "MIC", "setting": "[1]; Bacillus subtilis", "value": 200, "unit": "µg/mL"}, {"measurement": "FIC", "setting": "[2]; S. aureus, combination of 32 with Sulfamethoxazole", "value": "0.75 ± 0.20"}, {"measurement": "MIC", "setting": "[2]; Staphylococcus aureus", "value": 200, "unit": "µg/mL"}]}, {"compound": "CN(C)[C@@H]1C(O)=C(C(N)=O)C(=O)[C@@]2(O)C(O)=C3C(=O)c4c(O)cccc4[C@@](C)(O)[C@H]3C[C@@H]12", "note": "[Tetracycline]", "values": [{"measurement": "FIC", "setting": "[1]; B. subtilis, combination of 32 with Tetracycline", "value": "0.82 ± 0.21"}, {"measurement": "MIC", "setting": "[1]; Bacillus subtilis", "value": 5, "unit": "µg/mL"}, {"measurement": "FIC", "setting": "[2]; S. aureus, combination of 32 with Tetracycline", "value": "0.83 ± 0.38"}, {"measurement": "MIC", "setting": "[2]; Staphylococcus aureus", "value": 0.5, "unit": "µg/mL"}]}, {"compound": "COc1cc(Cc2cnc(N)nc2N)cc(OC)c1OC", "note": "[Trimethoprim]", "values": [{"measurement": "FIC", "setting": "[1]; B. subtilis, combination of 32 with Trimethoprim", "value": "0.77 ± 0.18"}, {"measurement": "MIC", "setting": "[1]; Bacillus subtilis", "value": 0.5, "unit": "µg/mL"}, {"measurement": "FIC", "setting": "[2]; S. aureus, combination of 32 with Trimethoprim", "value": "0.69 ± 0.32"}, {"measurement": "MIC", "setting": "[2]; Staphylococcus aureus", "value": 15, "unit": "µg/mL"}]}, {"compound": "CN[C@H](CC(C)C)C(=O)N[C@H]1C(=O)N[C@@H](CC(N)=O)C(=O)N[C@H]2C(=O)N[C@H]3C(=O)N[C@H](C(=O)N[C@H](C(=O)O)c4cc(O)cc(O)c4-c4cc3ccc4O)[C@H](O)c3ccc(c(Cl)c3)Oc3cc2cc(c3O[C@@H]2O[C@H](CO)[C@@H](O)[C@H](O)[C@H]2O[C@H]2C[C@](C)(N)[C@H](O)[C@H](C)O2)Oc2ccc(cc2Cl)[C@H]1O", "note": "[Vancomycin]", "values": [{"measurement": "FIC", "setting": "[1]; B. subtilis, combination of 32 with Vancomycin", "value": "0.33 ± 0.058"}, {"measurement": "MIC", "setting": "[1]; Bacillus subtilis", "value": 0.5, "unit": "µg/mL"}, {"measurement": "FIC", "setting": "[2]; S. aureus, combination of 32 with Vancomycin", "value": "0.19 ± 0.019"}, {"measurement": "MIC", "setting": "[2]; Staphylococcus aureus", "value": 1.5, "unit": "µg/mL"}]}, {"compound": "O=CN(O)CCCP(=O)(O)O", "note": "[fosmidomycin]", "values": [{"measurement": "FIC", "setting": "[3]; E. coli, combination of 11 with fosmidomycin", "value": "0.14 ± 0.13"}, {"measurement": "MIC", "setting": "[3]; Escherichia coli", "value": 5, "unit": "µg/mL"}, {"measurement": "FIC", "setting": "[4]; A. baumannii, combination of 11 with fosmidomycin", "value": "0.27 ± 0.057"}, {"measurement": "MIC", "setting": "[4]; Acinetobacter baumannii", "value": 5, "unit": "µg/mL"}, {"measurement": "FIC", "setting": "[5]; K. pneumoniae, combination of 11 with fosmidomycin", "value": "0.12 ± 0.014"}, {"measurement": "MIC", "setting": "[5]; Klebsiella pneumoniae", "value": 5, "unit": "µg/mL"}, {"measurement": "FIC", "setting": "[6]; P. aeruginosa, combination of 11 with fosmidomycin", "value": "0.18 ± 0.066"}, {"measurement": "MIC", "setting": "[6]; Pseudomonas aeruginosa", "value": 3, "unit": "µg/mL"}, {"measurement": "FIC", "setting": "[1]; B. subtilis, combination of 32 with Fosmidomycin", "value": "0.25 ± 0.043"}, {"measurement": "MIC", "setting": "[1]; Bacillus subtilis", "value": 5, "unit": "µg/mL"}]}, {"compound": "Bacitracin", "values": [{"measurement": "IC50", "setting": "[7]", "value": 32, "unit": "µM"}, {"measurement": "FIC", "setting": "[1]; B. subtilis, combination of 32 with Bacitracin", "value": "0.12 ± 0.028"}, {"measurement": "MIC", "setting": "[1]; B. subtilis, drug acting alone", "value": 200, "unit": "µg/mL"}, {"measurement": "FIC", "setting": "[2]; S. aureus, combination of 32 with Bacitracin", "value": "0.21 ± 0.039"}, {"measurement": "MIC", "setting": "[2]; S. aureus, drug acting alone", "value": 200, "unit": "µg/mL"}]}]}
